Reference: patent publication US20240239806A1, “COMPOUNDS, COMPOSITIONS AND METHODS OF TREATING DISORDERS” (Chengdu Anticancer Bioscience, Ltd., priority 2021, published 2024)
Entries after “also recorded” stand apart in the source; their conditions may differ.

Experiments:
[1] = test system: human lung cancer cell line NCI-H23; test: Soft agar colony formation assay; assay type: cell-based
From the text: (§1) Measuring the ability of cells to grow in soft agar has been popularly believed as the gold standard assay for cellular transformation in vitro. In the Soft Agar Assay, cells grow from single cells to cell colonies in a semi-solid agar solution that keeps them away from the solid surface and allows growth in an anchorage-independent way.
The anchorage-independent growth of cells is one of the hallmarks of cancer cells. Normal epithelial cells are supported by basement membranes that provide survival and proliferative signals while undergo a type of apoptosis called anoikis when lose their attachment to the extracellular matrix. Cancer cells, in contrast, evade detachment-induced apoptosis, leading to uncontrolled proliferation and metastasis. The Soft Agar Colony Formation Assay allows testing of the therapeutic efficacy of compounds against anchorage-independent 3D growth of cancer cells in vin. The assay was performed in 6-well plates with two layers of agar. For the first, 0.75% agar in DMEM medium was melted in a microwave oven and poured to form a bottom layer. Once solidified, 10-100K cells in 1 ml of DMEM containing 0.35% agar was added to form the top layer, which was later covered with 0.5 ml of DMEM. Cell culture medium was changed once every two days until colonies were ready to photograph. […]

Calu-6 = test: MECP in cancer cell line; assay type: cell-based, human
Experimental: (§2) Six lung cancer cell lines (NCI-H23, NCI-H460, NCI-H596, NCI-H2170, Calu-6 and A549), two colon cancer cell lines (HCT116 and SW460), one breast cancer cell line MDA-MB-231, one gastric cancer cell line NCI-N87, one prostate cancer cell line DU145, one cervical cancer cell line Hela, and one glioblastoma cell line T98G were obtained from ATCC. The T2 HCC cell line was derived from a mouse liver cancer model initiated by a transgene of MYC. All cell lines were cultured in DMEM (Gibco, Cleveland, TN, USA) supplemented with 5% fetal bovine serum (Gibco), penicillin (100 U/mL)—streptomycin (100 μg/mL) (Gibco, Cat. No. 15140-122), 2 mM L-glutamine (Gibco, 200 mM solution, Cat. No. 25030081), and 1 mM sodium pyruvate (Gibco, 100 mM solution, Cat. No. 11360070) at 37° C. in a humidified incubator that was maintained at 5% CO2.
(§3) We have previously developed a mechanism-informed phenotypic screening assay to identify novel antimitotic agents. Equipped with a prior understanding of the versatile functions of the chromosomal passenger protein (CPP) complex in orchestrating karyokinesis and cytokinesis, the screening assay is to score for phenotypes typically seen when the CPP complex is disabled. Specifically, the parameters for a positive hit are a temporary elevation of mitotic index (MI) at 24 hours of drug treatment and an accumulation of polyploid cells at 48 hours of drug treatment, indicative of mitotic arrest and cytokinetic failure respectively. These parameters exclude compounds that elicit only a prolonged arrest of cells in mitosis, a phenotype typically provoked by spindle toxins. The screening procedure is briefly summarized here. RPEMYC^H2B-GFP cells engineered to express a Histone 2B-EGFP fusion protein were passaged as batches of 96-well plates, 18-24 hours before exposure to the chemical compounds of the present disclosure at concentrations from 1 nM to 30 μM. At 24, 48 or 72 hours after initiation of treatment, cells were analyzed for either an arrest in mitosis or a change in DNA content by GE IN-Cell Analyzer 2000. As set forth in Table 2 below, a value of greater than or equal to 1 nM and less than or equal to 1.0 μM is marked “A”; a value greater than 1.00 μM and less than or equal to 10.0 μM is marked “B”; a value greater than 10.0 μM and less than or equal to 30.0 μM is marked “C”; and a value greater than 30.0 μM is marked “D.”

NCI-H2170 = test: MECP in cancer cell line; assay type: cell-based, human
Experimental: as §2, §3

DU145 = test: MECP in cancer cell line; assay type: cell-based, human
Experimental: as §2, §3

[2] = test system: cervical cancer cell line Hela; test: Soft agar colony formation assay; assay type: cell-based, human
From the text: as §1
(§4) The anchorage-independent growth of cells is one of the hallmarks of cancer cells. Normal epithelial cells are supported by basement membranes that provide survival and proliferative signals while undergo a type of apoptosis called anoikis when lose their attachment to the extracellular matrix. Cancer cells, in contrast, evade detachment-induced apoptosis, leading to uncontrolled proliferation and metastasis. The Soft Agar Colony Formation Assay allows testing of the therapeutic efficacy of compounds against anchorage-independent 3D growth of cancer cells in vin. The assay was performed in 6-well plates with two layers of agar. For the first, 0.75% agar in DMEM medium was melted in a microwave oven and poured to form a bottom layer. Once solidified, 10-100K cells in 1 ml of DMEM containing 0.35% agar was added to form the top layer, which was later covered with 0.5 ml of DMEM. Cell culture medium was changed once every two days until colonies were ready to photograph. We test the antitumor activity of select compounds in soft agar colony formation assays. […] The suppression of growth of these three cancer cell lines in 3D culture is consistent with the potent impact of these compounds on cellular proliferation in 2D culture.

Human Cancer Cells = test: Anchorage-independent growth in 3D culture (FIG. 3); assay type: cell-based; conditions: FIG. 3 legend, cell line not named
From the text: as §1, §4

[3] = test system: human lung cancer cell line NCI-H23; test: Colony formation assay of long-term effect; assay type: cell-based; conditions: exposed for three days, drug-free medium until 12 days; compared with AZD1152
From the text: Acute cytotoxicity immediately determined after short-term exposure to antimitotic agents often underestimates their potency, because some cancer cells might not die quickly after suffering mitotic defects such as an arrest in mitosis or a cytokinetic failure. Instead, after exposed to antimitotic agents, cells might face multiple possibilities that adversely affect their viability and proliferation in long-term such as permanent arrest of proliferation due to the development of senescence and nonapoptotic cell death by excessive autophagy. Only a small fraction of cells pretreated with an antimitotic agent might resume proliferation and divide to generate viable daughter cells that form colonies. Assay of the ability of cells to form colonies after being exposed to an anticancer agent for a short period of time represents a more accurate approach to document the potency of antimitotic agents. The human lung cancer cell line NCI-H23 in sub-confluence was exposed to compounds #7, #36, and #39 for three days and then transferred to drug-free fresh medium once every 3 days until 12 days after the initiation of treatment. At the end point, cells were photographed after fixed and stained with crystal violet.

[4] = test system: colon cancer cell line HCT116; test: Soft agar colony formation assay; assay type: cell-based, human
From the text: as §1, §4

| SMILES | growth in soft agar [1] | MECP (Calu-6) | MECP (NCI-H2170) | MECP (DU145) | anchorage-independent growth in soft agar [2] | Anchorage-independent Growth of Human Cancer Cells in 3D Culture (Human Cancer Cells) | long-term proliferative potential of NCI-H23 cells (colony formation) [3] | growth in soft agar [4] |
| --- | --- | --- | --- | --- | --- | --- | --- | --- |
| COC(=O)c1cc(Oc2ncnc3ccsc23)cc(C(=O)OC)c1 [Compound 39, dimethyl 5-(thieno[3,2-d]pyrimidin-4-yloxy)isophthalate] | completely blocked the growth | A (a value of greater than or equal to 1 nM and less than or equal to 1.0 μM) | A (a value of greater than or equal to 1 nM and less than or equal to 1.0 μM) | A (a value of greater than or equal to 1 nM and less than or equal to 1.0 μM) | effectively suppressed the anchorage-independent growth | Suppress the Anchorage-independent Growth | Suppress the Long-Term Proliferative Potential; also recorded: inhibited the long-term proliferative potential | – |
| COC(=O)c1cc(Oc2ncnc3cc[nH]c23)cc(C(=O)OC)c1 [Compound 36, dimethyl 5-((5H-pyrrolo[3,2-d]pyrimidin-4-yl)oxy)isophthalate] | completely blocked the growth | A (a value of greater than or equal to 1 nM and less than or equal to 1.0 μM) | A (a value of greater than or equal to 1 nM and less than or equal to 1.0 μM) | A (a value of greater than or equal to 1 nM and less than or equal to 1.0 μM) | effectively suppressed the anchorage-independent growth | Suppress the Anchorage-independent Growth | Suppress the Long-Term Proliferative Potential; also recorded: inhibited the long-term proliferative potential | – |
| COC(=O)c1cc(OC)cc(Oc2ncnc3cc[nH]c23)c1 [Compound 34, methyl 3-((5H-pyrrolo[3,2-d]pyrimidin-4-yl)oxy)-5-methoxybenzoate] | – | A (a value of greater than or equal to 1 nM and less than or equal to 1.0 μM) | A (a value of greater than or equal to 1 nM and less than or equal to 1.0 μM) | A (a value of greater than or equal to 1 nM and less than or equal to 1.0 μM) | – | – | – | – |
| COC(=O)c1cc(OC)cc(Oc2ncnc3cc(OC)c(OC)cc23)c1 [Compound 29] | – | A (a value of greater than or equal to 1 nM and less than or equal to 1.0 μM) | A (a value of greater than or equal to 1 nM and less than or equal to 1.0 μM) | B (a value greater than 1.00 M and less than or equal to 10.0 μM) | – | – | – | – |
| COc1cc(OC)cc(Oc2ccnc3ccccc23)c1 [Compound 7, 4-(3,5-dimethoxyphenoxy)quinoline] | – | – | – | – | effectively suppressed the anchorage-independent growth | Suppress the Anchorage-independent Growth | Suppress the Long-Term Proliferative Potential; also recorded: inhibited the long-term proliferative potential | suppressed the growth |
| COC(=O)c1cc(OC)cc(Oc2ncnc3ccsc23)c1 [Compound 37, methyl 3-methoxy-5-(thieno[3,2-d]pyrimidin-4-yloxy)benzoate] | – | A (a value of greater than or equal to 1 nM and less than or equal to 1.0 μM) | A (a value of greater than or equal to 1 nM and less than or equal to 1.0 μM) | A (a value of greater than or equal to 1 nM and less than or equal to 1.0 μM) | – | – | – | – |
